The values that follow come from patent publication US9226495B2, “Disinfection aerosol, method of use and manufacture” (SABAN VENTURES PTY LIMITED, priority 2009, dated 2016).

Series [1] can be described thus: Hydrogen peroxide destruction in bulk solution in a tube, temperature rise as proxy. It counts as physicochemical. The conditions noted are these: antagonist concentrations of below 1×10^−4 M; 0.02M sodium hydroxide; FIG. 3.
Description: Screening was initially conducted using bulk solutions combined in a tube, rather than as aerosols.
During destruction of hydrogen peroxide by Mn(II) or permanganate in tubes the temperature of the solution rather often reached boiling point. This should not happen when the biocide is sprayed as a mist due to absolutely different heat exchange conditions in bulk solution and in a thin layer of biocide. […] By lead time is meant the lag or induction period before the reaction velocity increases steeply.
For series [2] the following is noted: according OH&S requirements; of Mn; cited from earlier work.

With `[K+].[O]=[Mn](=[O])(=[O])[O-]` [KMnO4], in series [1], the “time to peak rate of reaction with 35% peroxide” value is “about 10 mins”.

Consider `[Mn]` [Mn], for which the permissible exposure limit in series [2] is on record as 5 mg/m^3.
